# Assay: in vitro
# Conditions: human, hela cells, % viability
row,Compound,"viability at 28.5 h, 10 µM [%]"
1,O=C(c1ccccc1F)N1CCC(c2n[nH]c3ncccc23)CC1 [CBK284903],91.7
2,Cc1ccc2nc(Nc3nc(C)cc(C)n3)[nH]c2c1 [CBK263634],97.9
3,CS(=O)(=O)c1ccc(CNC(=O)C2(c3ccccc3)CCCC2)cc1 [CBK161524],96.3
4,Cc1csc(NC(=O)CSc2nnc3[nH]c(=O)cc(C)n23)n1 [CBK294413],81.7
5,O=C(c1ccncc1)n1nc(NCc2ccccc2)nc1NCc1ccccc1 [CBK269069],89.5
6,O=C(CN1CCCC1c1cccs1)Nc1cccc(C(=O)NC2CC2)c1 (stereo not drawn) [CBK305895],98.5
7,CC(C)N1CCCC(CNC(=O)c2cc(C3CCCCC3)no2)C1 (stereo not drawn) [CBK283294],97.2
8,O=C(CCn1c(C(F)(F)F)cc2cccnc21)NC1CCCOC1 (stereo not drawn) [CBK284867],109
9,COc1cc(OC)cc(-c2nnc(SCc3cccc(C(=O)O)c3)[nH]2)c1 [CBK268736],108
10,CC(=O)Nc1cccc(-n2c(C)nnc2SCC2CCCCC2)c1 [CBK304590],86.3
11,Cc1ccc(S(=O)(=O)Nc2ccccc2CNc2ccccn2)cc1 [CBK264198],91.9
12,COc1ccc(C(=O)N2CCC3(CCCN(CCc4c[nH]c5ccccc45)C3)C2)cc1OC (stereo not drawn) [CBK137143],89.9
13,CCCCNS(=O)(=O)c1ccc(OCC(=O)O)cc1 [CBK268550],99.1
14,CN(C)c1cccc(-c2cncc(NCCCO)n2)c1 [CBK065619],102
15,O=C1CC(C(=O)Nc2cccc(C(=O)O)c2)C(c2ccccc2)O1 (stereo not drawn) [CBK293968],87.1
16,O=C(NCc1ccc(Cl)cc1)N1CCN(CCc2ccccc2)CC1 [CBK158922],90.7
17,CCCc1c(C)nc2ccc(C)cc2c1SCC(=O)O [CBK263537],88.6
18,CC1=C(c2ccc(OC(C)(C)CN3CCCC3)cc2)C(C)CCC1 (stereo not drawn) [CBK012357C],86.1
19,Clc1ccccc1OCCNC1CCc2[nH]c3ccccc3c2C1 (stereo not drawn) [CBK107790],107
20,Nc1ncc(-c2ccc(C(=O)N3CCOCC3)cc2)cc1C(=O)Nc1ccc(C(F)(F)F)cc1 [CBK160204],90.6
21,CSc1ccccc1CNC(=O)c1cc(Br)cnc1N(C)C(C)=O [CBK076478],106
22,O=C(O)CNS(=O)(=O)c1ccc(Cl)c(Cl)c1 [CBK266981],86.2

row,Compound,"viability at 28.5 h, 10 µM [%]"
1,Cc1cc(C)c2c(N)c(C(=O)O)sc2n1 [CBK131868],87.8
2,O=C(O)CCn1c2ccccc2c2cc(I)ccc21 [CBK262578],97.5
3,Cc1nc2c(c(=O)[nH]1)CN(C(=O)Cc1c(F)cccc1Cl)CC2 [CBK283589],92.1
4,CCn1cc(Cl)c(C(=O)Nc2ccsc2C(=O)OC)n1 [CBK058439],90.9
5,Cc1ccc(F)c(NS(=O)(=O)Cc2ccccc2)c1 [CBK038438],111
6,O=C(Nc1ccc2cc(Br)cnc2n1)C(F)(F)F [CBK063313],90
7,COCCN(C(=O)c1cc2cc(C)ccc2s1)C1CCS(=O)(=O)C1 (stereo not drawn) [CBK304289],87.3
8,CCN(CC)C(=O)CN1CCCN(c2nccc(OCCN3CCOCC3)n2)CC1 [CBK084094],99.5
9,COc1ccccc1-c1noc(CCCC(=O)Nc2cccnc2)n1 [CBK268848],101
10,NS(=O)(=O)c1cnc(Cl)c(Br)c1 [CBK034079],92.5
11,CN(C)c1cccc2c(S(=O)(=O)n3c(=O)n(CCc4c[nH]c5ccccc45)c4ccccc43)cccc12 [CBK106511],85.8
12,O=C(Nc1nnc(-c2ccccc2)o1)c1ccc2ncsc2c1 [CBK287598],94.4
13,CCN(CC)CCOC(=O)c1ccc(N)cc1 [CBK004330C],84.5
14,COc1ccc(-c2nc3ccccn3c2CN2CCC(C(=O)O)CC2)cc1OC [CBK287063],89.9
15,Cc1cc(C(=O)CSc2nnc(C(C)C)n2Cc2ccco2)c(C)n1C [CBK295178],81.9
16,Cc1ccc(CNC(=O)COc2ccc(S(=O)(=O)N3CCOCC3)cc2)cc1 [CBK269816],87.8
17,COc1ccc(/C(C)=N\NC(=O)c2cccc(Br)c2)cc1 [CBK261612],100
18,Cn1c(CO)nnc1[C@H]1C[C@@H](NC(=O)CCc2ccc(F)cc2F)C1 [CBK306796],86.4
19,O=[N+]([O-])c1cc(S(=O)(=O)Nc2ccccc2)ccc1N1CCN2CCCC2C1 (stereo not drawn) [CBK001248],87.7
20,CN(Cc1ccc(Br)cc1Cl)C(=O)c1cn[nH]c1C1CCNC1 (stereo not drawn) [CBK304785],93.5
21,Cc1ccc(Cl)cc1N1CCN(S(=O)(=O)N(C)C)CC1 [CBK270284],101
22,COc1ccc(C(C)C)cc1-c1nccnc1NCc1ccco1 [CBK036672],98

row,Compound,"viability at 28.5 h, 10 µM [%]"
1,CC(=O)NC(CCCN=C(N)N)C(=O)O (stereo not drawn) [CBK218726],107
2,OCc1cccc(-c2nccnc2NCc2ccc(OC(F)(F)F)cc2)c1 [CBK037476],108
3,COc1ccc(C2C=C(C)Nc3nc(N)nn32)cc1 (stereo not drawn) [CBK287906],91.8
4,OCCN1CCN(CC(O)COc2ccc(Cl)cc2Cl)CC1 (stereo not drawn) [CBK278198C],108
5,OC(CN1CCC(O)(Cn2cnc3ccccc32)CC1)c1ccc(-c2ccccc2)cc1 (stereo not drawn) [CBK286437],89
6,CCOc1cc([N+](=O)[O-])cc(C=O)c1OC(C)C(=O)O (stereo not drawn) [CBK264642],89.6
7,N#CCC(=O)N1CCN(Cc2ccc3c(c2)OCO3)CC1 [CBK074447],88.7
8,Brc1nc2c3c(nc(N4CCOCC4)c2s1)CCCC3 [CBK019604],83.4
9,COc1cc(C(=O)N2CCN(c3cc(C(C)C)ccc(CO)c3=O)CC2)cc(OC)c1OC [CBK007673],91
10,Cc1ccc(NC(=O)Nc2ccc3cc(Br)cnc3n2)c(C)c1 [CBK063269],85.8
11,O=C(O)CN(CC(=O)Nc1ccc(Cl)cc1)Cc1ccccc1 [CBK286585],85.5
12,Cc1ccc(NC(=O)CCC(=O)N2CCC3(CC2)CC(=O)c2ccccc2O3)cc1 [CBK156524],94.1
13,CCn1c(=O)n(CC(=O)N(C)C2CCCCC2)c2cccnc21 [CBK283786],86.3
14,CCn1ncc(CN2CCCCCC2c2cc(C)no2)c1C (stereo not drawn) [CBK283008],92.9
15,Cc1[nH]c(=O)c(S(=O)(=O)c2ccccc2)c(C)c1Cl [CBK018736],83.1
16,O=C(CCSc1ccc([N+](=O)[O-])cc1Cl)Nc1ccc(Br)c2cccnc12 [CBK266407],86.7
17,CCOC(=O)c1c(NC(=O)CSc2nnc3ccccn23)sc2c1CCC(C)C2 (stereo not drawn) [CBK265668],89
18,N=C(N)NCCCc1c[nH]c2ccccc12 [CBK012139G],101
19,O=C(CCn1c2ccccc2c2ccccc21)N1CCn2cnnc2C1 [CBK283645],90.4
20,O=C(NC(c1ccccc1)c1ccccc1)C1(c2ccccc2)CCCC1 [CBK149536],96.8
21,Cc1nn(C)c(Cl)c1S(=O)(=O)Nc1nn(Cc2ccc(C#N)cc2)c2ccccc12 [CBK048185],111
22,Nc1nnnn1/N=C/c1cc(Cl)cc(Cl)c1OCc1ccc(Cl)cc1Cl [CBK263853],107

# From publication PMC12040169 (PLOS Biology, 2025)
